The test system of one assay is DLD-1. Nature of the assay: Cell proliferation (cell count by microscopy), DLD-1. It is filed as cell-based. The note with it: Homo sapiens; DLD-1 (KRAS, PIK3CA), 72 h treatment, single agent tested 13 nM-10 μM; 50% of cell counts relative to DMSO. An excerpt: (§1) The debris counts were subtracted from raw nuclei counts.
(§2) The model input were inhibition values per drug dose: […]

The subject of another assay is SW480. The assay can be described thus: Cell proliferation (cell count by microscopy), SW480. It is filed as cell-based. To be noted: Homo sapiens; SW480 (KRAS), 72 h treatment, single agent tested 13 nM-10 μM; 50% of cell counts relative to DMSO.
From the text: as §1, §2

The next assay has as its system LoVo. Nature of the assay: Cell proliferation (cell count by microscopy), LoVo. The note with it: Homo sapiens; LoVo (KRAS), 96 h treatment, single agent tested 13 nM-10 μM; 50% of cell counts relative to DMSO. In kind it is cell-based.
From the text: as §1, §2

A further assay deals with LIM2551. The assay can be described thus: Cell proliferation (cell count by microscopy), LIM2551. To be noted: LIM2551 (BRAF, PIK3CA), 72 h treatment, single agent tested 13 nM-10 μM; 50% of cell counts relative to DMSO. In kind it is cell-based.
From the text: as §1, §2

A further assay deals with SW837. Nature of the assay: Cell proliferation (cell count by microscopy), SW837. It is filed as cell-based. To be noted: Homo sapiens; SW837 (KRAS), 72 h treatment, single agent tested 13 nM-10 μM; 50% of cell counts relative to DMSO.
From the text: as §1, §2

Assay [1] deals with 15 colorectal cancer cell lines. The note with it: single agent, 13 nM-10 μM.
Protocol: The compounds were dissolved in 100% DMSO (Sigma, Catalog number D2650) at concentrations of 20 mM and stored at -20° C. until use.
All cell line media were supplemented with 10% FBS (HyClone, Catalog number SH30071.03).
Cell lines were cultured in 37° C. and 5% CO2 incubator and expanded in T-75 flasks. In all cases cells were thawed from frozen stocks, expanded through ≤1 passage using 1:3 dilutions, counted and assessed for viability using a ViCell counter (Beckman-Coulter) prior to plating. […] All cell lines were determined to be free of mycoplasma contamination as determined by a PCR detection methodology performed at Idexx Radil (Columbia, Mo., USA) and correctly identified by detection of a panel of SNPs.
The compound's effect on cell proliferation was calculated from the cell counts of the treatments relative to the cell counts of the negative control (DMSO), in FIG. 1 denoted as ‘Normalized cell count’ (=‘xnorm’) on the y-axis. […] The model input were inhibition values per drug dose:
I=1-xnorm • I: Inhibition • xnorm: normalized cell count (median of three replicates) […]
C=ΣConc(Idata*(Idata−Imodel)) • Idata: measured inhibition • Imodel: inhibition according to HSA null hypothesis
Robust combination z-scores (zC) were calculated as the ratio of the treatments' combination scores C and the median absolute deviation (mad) of non-interacting combinations: […]
The next assay deals with RKO. The assay can be described thus: Cell proliferation (cell count by microscopy), RKO. To be noted: Homo sapiens; RKO (BRAF, PIK3CA), 72 h treatment, single agent tested 13 nM-10 μM; 50% of cell counts relative to DMSO. In kind it is cell-based.
From the text: as §1, §2

The next assay deals with COLO-320. The assay can be described thus: Cell proliferation (cell count by microscopy), COLO-320. In kind it is cell-based. To be noted: Homo sapiens; COLO-320 (no driver mutation listed), 72 h treatment, single agent tested 13 nM-10 μM; 50% of cell counts relative to DMSO.
From the text: as §1, §2

Another assay relates to HT-29. Nature of the assay: Cell proliferation (cell count by microscopy), HT-29. It is filed as cell-based. To be noted: Homo sapiens; HT-29 (BRAF, PIK3CA), 72 h treatment, single agent tested 13 nM-10 μM; 50% of cell counts relative to DMSO.
From the text: as §1, §2

The subject of another assay is LS411N. The assay can be described thus: Cell proliferation (cell count by microscopy), LS411N. It is filed as cell-based. The note with it: Homo sapiens, LS-411N; LS411N (BRAF), 72 h treatment, single agent tested 13 nM-10 μM; 50% of cell counts relative to DMSO.
From the text: as §1, §2

The next assay concerns OUMS-23. Nature of the assay: Cell proliferation (cell count by microscopy), OUMS-23. In kind it is cell-based. The note with it: OUMS-23 (BRAF), 72 h treatment, single agent tested 13 nM-10 μM; 50% of cell counts relative to DMSO.
From the text: as §1, §2

In the next assay the test system is GP2d. The assay can be described thus: Cell proliferation (cell count by microscopy), GP2d. It is filed as cell-based. To be noted: GP2d (KRAS, PIK3CA), 72 h treatment, single agent tested 13 nM-10 μM; 50% of cell counts relative to DMSO.
From the text: as §1, §2

The test system of the next assay is HCT-116. Nature of the assay: Cell proliferation (cell count by microscopy), HCT-116. In kind it is cell-based. To be noted: Homo sapiens; HCT-116 (KRAS, PIK3CA), 72 h treatment, single agent tested 13 nM-10 μM; 50% of cell counts relative to DMSO.
From the text: as §1, §2

The next assay deals with LS-180. Nature of the assay: Cell proliferation (cell count by microscopy), LS-180. In kind it is cell-based. The note with it: Homo sapiens, LS180; LS-180 (KRAS, PIK3CA), 72 h treatment, single agent tested 13 nM-10 μM; 50% of cell counts relative to DMSO.
From the text: as §1, §2

The next assay concerns COLO-205. The assay can be described thus: Cell proliferation (cell count by microscopy), COLO-205. In kind it is cell-based. The note with it: Homo sapiens; COLO-205 (BRAF), 72 h treatment, single agent tested 13 nM-10 μM; 50% of cell counts relative to DMSO.
From the text: as §1, §2

We go through 1 molecule from patent US20180243304A1, “PHARMACEUTICAL COMBINATIONS COMPRISING (A) THE CYCLIN DEPENDENT KINASE 4/6 (CDK4/6) INHIBITOR LEE011 (=RIBOCICLIB), AND (B) THE EPIDERMAL GROWTH FACTOR RECEPTOR (EGFR) INHIBITOR ERLOTINIB, FOR THE TREATMENT OR PREVENTION OF CANCER” (Novartis AG, priority 2015, published 2018).

In general, IC50 refers to the concentration needed to halve the response being measured. Read a low IC50 as greater potency in that assay. With `C#Cc1cccc(Nc2ncnc3cc(OCCOC)c(OCCOC)cc23)c1` [Erlotinib, N-(3-ethynylphenyl)-6,7-bis(2-methoxyethoxy)quinazolin-4-amine], the IC50 is 7.06 µM in the assay on DLD-1; > 10 µM with SW480; 716 nM in the assay with LoVo; > 10 µM in the assay on LIM2551; > 10 µM in the assay with SW837; > 10 µM in the assay on RKO. Further, the IC50 in the assay on COLO-320 was 6.92 µM; with HT-29, > 10 µM; in the assay with LS411N it was > 10 µM; with OUMS-23 it was > 10 µM; with GP2d, 8.86 µM; with HCT-116, > 10 µM. Moreover, the IC50 in the assay on LS-180 and with COLO-205 was > 10 µM in each case. Besides, the “cell lines in which IC50s were achieved for the concentration range tested” value in [1] is on record as 5/15.
